# Assay results as given in PubChem BioAssay (NCI).
#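 Results reflect a 48-hour exposure of cells in 96-well plates to compound at five concentrations. TGI is the concentration that stops growth completely.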
# Tests used:
# Assay in all cases: growth of human tumour cells (NCI), 48 h
# 786-0 renal = test system: 786-0 renal
# A498 renal = test system: A498 renal
# A549 NSCLC = test system: A549 NSCLC
# ACHN renal = test system: ACHN renal
# BT-549 breast = test system: BT-549 breast
# CAKI-1 renal = test system: CAKI-1 renal
# CCRF-CEM leukemia = test system: CCRF-CEM leukemia
# COLO 205 colon = test system: COLO 205 colon
# DLD-1 colon = test system: DLD-1 colon
# DMS 114 small cell lung = test system: DMS 114 small cell lung
# DMS 273 small cell lung = test system: DMS 273 small cell lung
# DU-145 prostate = test system: DU-145 prostate
# EKVX NSCLC = test system: EKVX NSCLC
# HCC-2998 colon = test system: HCC-2998 colon
# HCT-116 colon = test system: HCT-116 colon
# HCT-15 colon = test system: HCT-15 colon
# HL-60(TB) leukemia = test system: HL-60(TB) leukemia
# HOP-18 NSCLC = test system: HOP-18 NSCLC
# HOP-62 NSCLC = test system: HOP-62 NSCLC
# HOP-92 NSCLC = test system: HOP-92 NSCLC
# HS 578T breast = test system: HS 578T breast
# HT29 colon = test system: HT29 colon
# IGROV1 ovarian = test system: IGROV1 ovarian
# K-562 leukemia = test system: K-562 leukemia
# KM12 colon = test system: KM12 colon
# KM20L2 colon = test system: KM20L2 colon
# LOX IMVI melanoma = test system: LOX IMVI melanoma
# LXFL 529 NSCLC = test system: LXFL 529 NSCLC
# M14 melanoma = test system: M14 melanoma
# M19-MEL melanoma = test system: M19-MEL melanoma
# MALME-3M melanoma = test system: MALME-3M melanoma
# MCF7 breast = test system: MCF7 breast
# MDA-MB-231 breast = test system: MDA-MB-231 breast
# MDA-MB-435 = test system: MDA-MB-435
# MDA-N = test system: MDA-N
# MOLT-4 leukemia = test system: MOLT-4 leukemia
# NCI-H226 lung = test system: NCI-H226 lung
# NCI-H23 lung = test system: NCI-H23 lung
# NCI-H460 lung = test system: NCI-H460 lung
# NCI-H522 lung = test system: NCI-H522 lung
# OVCAR-3 ovarian = test system: OVCAR-3 ovarian
# OVCAR-4 ovarian = test system: OVCAR-4 ovarian
# OVCAR-5 ovarian = test system: OVCAR-5 ovarian
# OVCAR-8 ovarian = test system: OVCAR-8 ovarian
# PC-3 prostate = test system: PC-3 prostate
# RPMI-8226 leukemia = test system: RPMI-8226 leukemia
# RXF 393 renal = test system: RXF 393 renal
# SF-268 CNS = test system: SF-268 CNS
# SF-295 CNS = test system: SF-295 CNS
# SF-539 CNS = test system: SF-539 CNS
# SK-MEL-2 melanoma = test system: SK-MEL-2 melanoma
# SK-MEL-28 melanoma = test system: SK-MEL-28 melanoma
# SK-MEL-5 melanoma = test system: SK-MEL-5 melanoma
# SK-OV-3 ovarian = test system: SK-OV-3 ovarian
# SN12C renal = test system: SN12C renal
# SNB-19 CNS = test system: SNB-19 CNS
# SNB-75 CNS = test system: SNB-75 CNS
# SNB-78 CNS = test system: SNB-78 CNS
# SR leukemia = test system: SR leukemia
# SW-620 colon = test system: SW-620 colon
# T-47D breast = test system: T-47D breast
# TK-10 renal = test system: TK-10 renal
# U251 CNS = test system: U251 CNS
# UACC-257 melanoma = test system: UACC-257 melanoma
# UACC-62 melanoma = test system: UACC-62 melanoma
# UO-31 renal = test system: UO-31 renal
# XF 498 CNS = test system: XF 498 CNS
# RXF-631 renal = test system: RXF-631 renal
smiles,measurement,setting,value
Cc1cccc(C)c1NC(=O)/C(Cl)=C(/Cl)C(=O)O,TGI,786-0 renal,31.3 µM
same,TGI,A498 renal,60.6 µM
same,TGI,A549 NSCLC,45.3 µM
same,TGI,ACHN renal,29.4 µM
same,TGI,BT-549 breast,31.5 µM
same,TGI,CAKI-1 renal,15.1 µM
same,TGI,CCRF-CEM leukemia,14.1 µM
same,TGI,COLO 205 colon,11.4 µM
same,TGI,DLD-1 colon,17.8 µM
same,TGI,DMS 114 small cell lung,43.2 µM
same,TGI,DMS 273 small cell lung,35.9 µM
same,TGI,DU-145 prostate,64.8 µM
same,TGI,EKVX NSCLC,35.7 µM
same,TGI,HCC-2998 colon,32.2 µM
same,TGI,HCT-116 colon,36.4 µM
same,TGI,HCT-15 colon,34.8 µM
same,TGI,HL-60(TB) leukemia,> 100 µM
same,TGI,HOP-18 NSCLC,38.2 µM
same,TGI,HOP-62 NSCLC,> 81.7 µM
same,TGI,HOP-92 NSCLC,30.3 µM
same,TGI,HS 578T breast,83.2 µM
same,TGI,HT29 colon,39.3 µM
same,TGI,IGROV1 ovarian,40.8 µM
same,TGI,K-562 leukemia,17.4 µM
same,TGI,KM12 colon,23 µM
same,TGI,KM20L2 colon,20.8 µM
same,TGI,LOX IMVI melanoma,34.3 µM
same,TGI,LXFL 529 NSCLC,15.2 µM
same,TGI,M14 melanoma,12.6 µM
same,TGI,M19-MEL melanoma,43.7 µM
same,TGI,MALME-3M melanoma,29.7 µM
same,TGI,MCF7 breast,46.3 µM
same,TGI,MDA-MB-231 breast,41.7 µM
same,TGI,MDA-MB-435,51 µM
same,TGI,MDA-N,36.8 µM
same,TGI,MOLT-4 leukemia,27.5 µM
same,TGI,NCI-H226 lung,27.4 µM
same,TGI,NCI-H23 lung,38.6 µM
same,TGI,NCI-H460 lung,> 69.9 µM
same,TGI,NCI-H522 lung,8.92 µM
same,TGI,OVCAR-3 ovarian,41.8 µM
same,TGI,OVCAR-4 ovarian,33.5 µM
same,TGI,OVCAR-5 ovarian,40.6 µM
same,TGI,OVCAR-8 ovarian,40.9 µM
same,TGI,PC-3 prostate,50.4 µM
same,TGI,RPMI-8226 leukemia,37.1 µM
same,TGI,RXF 393 renal,33.9 µM
same,TGI,SF-268 CNS,32.6 µM
same,TGI,SF-295 CNS,> 56.1 µM
same,TGI,SF-539 CNS,53.9 µM
same,TGI,SK-MEL-2 melanoma,31.5 µM
same,TGI,SK-MEL-28 melanoma,35.1 µM
same,TGI,SK-MEL-5 melanoma,34.5 µM
same,TGI,SK-OV-3 ovarian,45.5 µM
same,TGI,SN12C renal,33.7 µM
same,TGI,SNB-19 CNS,> 70.1 µM
same,TGI,SNB-75 CNS,43.4 µM
same,TGI,SNB-78 CNS,> 74.6 µM
same,TGI,SR leukemia,> 57.1 µM
same,TGI,SW-620 colon,14.9 µM
same,TGI,T-47D breast,66.2 µM
same,TGI,TK-10 renal,21.6 µM
same,TGI,U251 CNS,47.5 µM
same,TGI,UACC-257 melanoma,29.8 µM
same,TGI,UACC-62 melanoma,20.6 µM
same,TGI,UO-31 renal,21.7 µM
same,TGI,XF 498 CNS,28.6 µM
NCCCN(CCCN)CCCNCc1c2ccccc2c(CNCCCN(CCCN)CCCN)c2ccccc12,TGI,786-0 renal,23.4 µM
same,TGI,A498 renal,60.2 µM
same,TGI,A549 NSCLC,> 100 µM
same,TGI,ACHN renal,25.7 µM
same,TGI,CAKI-1 renal,32.7 µM
same,TGI,CCRF-CEM leukemia,> 100 µM
same,TGI,COLO 205 colon,22.5 µM
same,TGI,DLD-1 colon,28.8 µM
same,TGI,DMS 273 small cell lung,17 µM
same,TGI,EKVX NSCLC,28.4 µM
same,TGI,HCC-2998 colon,20.1 µM
same,TGI,HCT-116 colon,47.9 µM
same,TGI,HCT-15 colon,28.6 µM
same,TGI,HL-60(TB) leukemia,38 µM
same,TGI,HOP-18 NSCLC,20.7 µM
same,TGI,HOP-62 NSCLC,32.9 µM
same,TGI,HOP-92 NSCLC,89.1 µM
same,TGI,HT29 colon,37.5 µM
same,TGI,IGROV1 ovarian,28.1 µM
same,TGI,K-562 leukemia,> 100 µM
same,TGI,KM12 colon,14 µM
same,TGI,KM20L2 colon,47.8 µM
same,TGI,LOX IMVI melanoma,42 µM
same,TGI,LXFL 529 NSCLC,22.6 µM
same,TGI,M14 melanoma,28.5 µM
same,TGI,M19-MEL melanoma,20.4 µM
same,TGI,MALME-3M melanoma,22.4 µM
same,TGI,MOLT-4 leukemia,69.8 µM
same,TGI,NCI-H226 lung,> 100 µM
same,TGI,NCI-H23 lung,85.6 µM
same,TGI,NCI-H460 lung,29.2 µM
same,TGI,NCI-H522 lung,26.1 µM
same,TGI,OVCAR-3 ovarian,38.6 µM
same,TGI,OVCAR-4 ovarian,34 µM
same,TGI,OVCAR-5 ovarian,> 100 µM
same,TGI,OVCAR-8 ovarian,25.8 µM
same,TGI,RPMI-8226 leukemia,19 µM
same,TGI,RXF 393 renal,45.2 µM
same,TGI,RXF-631 renal,43.7 µM
same,TGI,SF-268 CNS,57.7 µM
same,TGI,SF-295 CNS,27.8 µM
same,TGI,SF-539 CNS,30.2 µM
same,TGI,SK-MEL-2 melanoma,54.9 µM
same,TGI,SK-MEL-28 melanoma,21.9 µM
same,TGI,SK-MEL-5 melanoma,17.9 µM
same,TGI,SN12C renal,34.2 µM
same,TGI,SNB-19 CNS,30.6 µM
same,TGI,SNB-75 CNS,34.3 µM
same,TGI,SNB-78 CNS,79.9 µM
same,TGI,SR leukemia,> 100 µM
same,TGI,SW-620 colon,32.5 µM
same,TGI,TK-10 renal,23.1 µM
same,TGI,U251 CNS,33 µM
same,TGI,UACC-257 melanoma,27.3 µM
same,TGI,UACC-62 melanoma,21.5 µM
same,TGI,UO-31 renal,> 100 µM
same,TGI,XF 498 CNS,38.1 µM
